Reference: patent US9907787B2, “Method of supplementing the diet and ameliorating oxidative stress” (priority 2008, dated 2018)
Where “and” joins values, the source holds several entries; their conditions need not be identical. Identical values can stand only once. Entries after “also recorded” stand apart in the source; their conditions may differ.

Key:
[1] = water soluble antioxidants and chelators, rapidly cleared by kidneys or liver; cited from earlier work
Storage stability = format: physicochemical; conditions: sealed plastic test tubes, sixteen months, room temperature
From the text: OSR also has excellent stability when stored in sealed plastic test tubes with less than three percent breakdown occurring at sixteen months of storage at room temperature. Most antioxidants break down very rapidly when exposed to air or water but OSR is exceptional in this regards.

blood GSH, GSSG = test: Effect of daily OSR on blood GSH, GSSG levels and GSH/GSSG ratios; format: in vivo, human; conditions: 10 subjects, 200 mg of OSR per day
From the text: Effect of daily administration of OSR on key biochemical parameters. […] Also, the major improvement seemed to result from the very significant decrease in oxidized glutathione (GSSG) instead of a total increase in all forms of glutathione. This would be best explained by OSR scavenging hydroxyl free radicals salvaging the GSH by preventing its oxidation to GSSG. This change occurred in 10 of 10 subjects.
All were in reasonable health with no obvious bacterial infections. GSH/GSSG ratios increased in all primarily due to the drop in GSSG levels in all subjects. […] The average tGSH/GSSG ratio almost doubled caused by a near average halving of the GSSG levels.

Solubility = format: physicochemical
From the text: In fact, the compounds in U.S. Pat. No. 6,586,600 were mostly ineffective at treating environmental contaminations of heavy metal due to their insolubility in water and many organic solvents. The conventional wisdom is that any metal chelator has to be water soluble to be effective is evidenced by the currently known chelators such as dimercapopropane sulfonate (DMPS), dimercaptosuccinic acid (DMSA), ethylenediaminetetraacetic acid (EDTA) and even the natural mammalian heavy metal chelator glutathione. These observations made the use of the compounds questionable for any mammalian based treatment regarding the removal of charged toxic metals like Hg^2+, Pb^2+, and Cd^2+ which are water soluble and would most likely be located in the aqueous aspects of mammalian tissues. Additionally, any compound that is not water soluble nor soluble in most organic solvents would not be expected to pass the intestinal endothelial membrane barrier and enter the blood and tissues of the mammal. Further, the compound(s) would have to cross the cell membrane to be able to interact with and bind the intracellular located heavy metal responsible for the toxic effects. It would also have to be able to cross the blood brain barrier to be effective for any neurotoxic heavy metal effect. […]

[2] = Kinetic study: plasma half-life, tissue distribution and clearance; format: in vivo
From the text: The mitochondria, especially if abnormal or damaged by heavy metals or radiation, are the main producers of the free radicals that cause cellular damage to the membranes, proteins or nucleic acids (DNA, RNA). Therefore, OSR is positioned to intercept these free radicals before they do damage and the ORAC scores show us OSR is exceptional at scavenging these toxic chemicals. Thus, OSR operates as an antioxidant in a more efficient and effective level than antioxidants generally known in the art.
It should also be appreciated that OSR is cleared from all tissues tested by over 90% twenty-four hours after ingestion. Therefore, no toxic build-up of OSR occurs in the mammal.
Preferred dosage forms for oral administration include the isolated compounds in powder form. Such powders may be taken up with a swoop and spread onto food or mixed into drinks for easy consumption without bad taste. The pure compounds may be pre-mixed with certain dietary ingredients such as butter, olive oil, corn oil, albumin, whey or other foods which will help in absorption of the compounds by the mere process of dissolving them. Using OSR dissolved in corn oil, it was determined that it takes two hours post ingestion for the maximum level of OSR to show up in the plasma of all tested animals.

[3] = tested on: glutathione-S-transferase (GST); test: Effect of OSR on Glutathione-S-transferase (GST) levels; format: in vivo, human; conditions: for Glutathione-S-transferase (GST) levels: lines = patients 1-10
From the text: GST is an enzyme that uses glutathione (GSH) as a substrate to covalently modify certain organic toxins by ‘transferring GSH’ to a P-450 enzyme oxidized site on the toxin. […] GST was non-detectable in all 10 patients at the start of the study and was detectable in all 10 patients at the end of the study. The change in the redox level most likely had something to do with the appearance of this enzyme. It is a common mechanism in cellular regulation that the lowering of a substrate (e.g. glutathione) needed at several locations results in the suppressed expression of the enzyme (e.g. GST) that use this substrate for reactions that are less necessary to support survival. The buildup of GSH most likely induces the expression of GST and this buildup accounts for the induction of new GST synthesis.

[4] = Effect of OSR treatment on essential elements; format: in vivo; conditions: treatment with OSR
From the text: (§1) Also, copper and zinc are primarily found in a water environment (hydrophilic aspects) of the body whereas OSR partitions into the hydrophobic aspects. This separation may play a role in the lack of OSR removing copper and zinc. However, in diseases with excess free copper, iron or zinc, OSR is likely to be able to bind and decrease the toxicity of these metals.

[5] = tested on: cysteine, methionine, homocysteine; test: Effect of OSR on blood sulfur containing amino acid levels; format: in vivo, human; conditions: 10 patients, two month period
From the text: To determine if OSR changed the level of cysteine, the rate limiting amino acid in glutathione synthesis, the level of all thiol containing amino acids was done for the same 10 patients for a two month period. […] The homocysteine level was high in patient #9, a person diagnosed with Alzheimer's disease, over the two month testing their levels dropped to near normal levels.
The possible exception was the homocysteine levels in patient #9, a person with Alzheimer's disease.

[6] = Toxicity / LD-50 in test animals; format: in vivo
From the text: In fact, OSR is so non-toxic that an LD-50 could not be identified and was established as greater than 5 grams per kilogram body weight.

[7] = tested on: rats injected with mercuric chloride; test: Protective effects of OSR on rats injected with mercuric chloride; format: in vivo, rat; design: key to survival (Alive/Dead): A = Alive; D = Dead; conditions: for survival (Alive/Dead): Rat 1-3
Experimental: Protective effects of OSR on rats injected subcutaneously with mercuric chloride.
Our experiments were designed around this value.
For each of the experiments nine, 5-7 weeks old, rats were chosen. They were divided into three groups and they were fed rat chow and water ad libitum.
The mercuric chloride was dissolved in PBS/DMSO and injected intraperitoneally at time zero.
The compound OSR was dissolved in 0.75 ml DMSO and 0.25 ml PBS. Injection was subcutaneous under the skin covering the stomach. These were done 20 min. after the injection of the mercuric chloride.

[8] = ORAC (oxygen-radical-absorbance-capacity) score; format: biochemical
Experimental: As should be appreciated from the following table, OSR has an exceptionally high ORAC (oxygen-radical-absorbance-capacity) score.
The ORAC score is measured by a compound or elixer's ability to intercept reactive oxygen species, free radicals preventing them from oxidizing a water soluble fluorescent vitamin-E derivative. OSR has the ability in the body to protect vitamin-E (a fat soluble vitamin) and other fat soluble natural compounds such as lipids from damage by oxidizing free radicals since it partitions into the hydrophobic areas where they exist and reacts with free radicals more effectively than they do, thereby scavenging the hydroxyl free radicals and preventing them from doing damage. […] OSR is more capable of reacting with these radicals than vitamin-E and, accordingly, OSR should provide even better protection. In fact, OSR should salvage vitamin E and D in vivo.

[9] = Affinity for heavy metals; format: binding
From the text: as §1

rats = conditions: intraperitoneal; cited from earlier work

Compound: O=S(=O)(O)CC(S)CS (centres unmarked) [DMPS, dimercaptopropane sulfonate]
- half-life [1]: less than one to two

Compound: O=C(O)C(S)C(S)C(=O)O (centres unmarked) [DMSA, dimercaptosuccinic acid]
- half-life [1]: less than one to two

Compound: O=C(NCCS)c1cccc(C(=O)NCCS)c1 [OSR, N,N′-bis(2-mercaptoethyl)isophthalamide]
- breakdown on storage (Storage stability): less than three
- GSH levels, result in words (blood GSH, GSSG; two months): increased slightly in 7 of 10
- redox ratio (GSH/GSSG), result in words (blood GSH, GSSG; whole blood, OSR taken regularly, approximately 60 days): significantly increase; also recorded: dramatically improved
- lipid solubility (Solubility): lipid soluble
- OSR levels relative to peak values seen at hour 2 ([2]; 24 hours post-ingestion, OSR dissolved in corn oil): 4-12%
- time post ingestion for the maximum level of OSR in plasma ([2]; OSR dissolved in corn oil, all tested animals): two
- blood brain barrier / tissue entry ([2]; kinetic study, all tissues tested): crosses the blood brain barrier
- half-life in plasma ([2]; plasma of test animals): about six to seven
- cleared from all tissues tested ([2]; twenty-four hours after ingestion): over 90%
- glutathione-S-transferase (GST), result in words ([3]; 10 patients, after OSR treatment): consistently elevated in all 10 patients
- Glutathione-S-transferase (GST) levels ([3]; time 1 month): 0.58 ng/mL and 0.46 ng/mL
- Glutathione-S-transferase (GST) levels ([3]; time 2 months): 0.53 ng/mL and 0.43 ng/mL and 0.37 ng/mL and 0.32 ng/mL and 0.63 ng/mL and 0.48 ng/mL
- lowering of essential elements copper, iron and zinc [4]: does not result in a significant lowering
- changes in cysteine, methionine or homocysteine levels, result in words [5]: No significant consistent changes
- LD-50 [6]: greater than 5 grams per kilogram body weight
- toxicity ([6]; levels up to 5,000 mg per day): without toxicity
- survival (Alive/Dead) ([7]; 0 hr, mercury chloride 2 mg/kg body weight, OSR 0.5 millimoles/kg subcutaneous 20 min after): A
- survival (Alive/Dead) ([7]; 0 hr, mercury chloride 14 mg/kg body weight, OSR 1 mM/kg body weight subcutaneous 20 min after): A
- survival (Alive/Dead) ([7]; 1 week, mercury chloride 2 mg/kg body weight, OSR 0.5 millimoles/kg subcutaneous 20 min after): A
- survival (Alive/Dead) ([7]; 1 week, mercury chloride 14 mg/kg body weight, OSR 1 mM/kg body weight subcutaneous 20 min after): A
- survival (Alive/Dead) ([7]; 6 hr, mercury chloride 2 mg/kg body weight, OSR 0.5 millimoles/kg subcutaneous 20 min after): A
- survival (Alive/Dead) ([7]; 6 hr, mercury chloride 14 mg/kg body weight, OSR 1 mM/kg body weight subcutaneous 20 min after): A
- survival (Alive/Dead) ([7]; 12 hr, mercury chloride 2 mg/kg body weight, OSR 0.5 millimoles/kg subcutaneous 20 min after): A
- survival (Alive/Dead) ([7]; 12 hr, mercury chloride 14 mg/kg body weight, OSR 1 mM/kg body weight subcutaneous 20 min after): A
- survival (Alive/Dead) ([7]; 24 hr, mercury chloride 2 mg/kg body weight, OSR 0.5 millimoles/kg subcutaneous 20 min after): A
- survival (Alive/Dead) ([7]; 24 hr, mercury chloride 14 mg/kg body weight, OSR 1 mM/kg body weight subcutaneous 20 min after): A
- survival (Alive/Dead) ([7]; 48 hr, mercury chloride 2 mg/kg body weight, OSR 0.5 millimoles/kg subcutaneous 20 min after): A
- survival (Alive/Dead) ([7]; 48 hr, mercury chloride 14 mg/kg body weight, OSR 1 mM/kg body weight subcutaneous 20 min after): D and A
- protection from mercury induced toxic effects (blood in urine and feces, death, weight loss, ataxia) ([7]; rats given 0.6 lethal dose of mercury chloride, 10-fold excess of OSR twenty-thirty minutes later): protected from mercury induced toxic effects
- excretion route of OSR bound mercury ([7]; rats given mercury chloride and OSR): primarily excreted through the fecal route
- protection from death ([7]; rats injected with 1-5 levels (or higher) of lethal doses of mercury chloride, single 10-fold excess of OSR dissolved in DMSO): protected from death
- ORAC Score [8]: 192,400 μmoleTE/100 g
- affinity for mercury, lead, arsenic and cadmium [9]: exceptionally high affinity

Compound: N[C@@H](CCC(=O)N[C@@H](CS)C(=O)NCC(=O)O)C(=O)O [glutathione]
- half-life [1]: less than one to two

Compound: [Cl][Hg][Cl] [mercury chloride]
- LD 50 (rats): 3.2 mg/kg body weight

Compound: Oc1ccc(C=Cc2cc(O)cc(O)c2)cc1 [resveratrol]
- half-life [1]: less than one to two
